A word on the IC50: it is the midpoint of a concentration-inhibition curve.

The structures appear in SMILES notation. A value given as a limit tells only on which side of the number the result lay.

The test system of series [1] is SK-MEL-28. The experiment in a line: Potentiation of poly I:C-induced antiproliferative activity against human SK-MEL-28 cells assessed as reduction in cell numbers by measuring IC50 pretreated with compound for 2 hrs followed by poly I:C addition and measured after 48 hrs by MTT assay. It counts as functional, cell-based. In general terms: Tetrazolium assays rely on reduction of a dye to a coloured formazan, in cell work by metabolically active cells.

The test system of series [2] is ACHN. The experiment in a line: Antiproliferative activity against human ACHN cells assessed as inhibition of cell proliferation incubated for 24 hrs by MTT assay. The series is classed as functional, cell-based.
Series [3] in a line: Selectivity ratio of IC50 for HFF cells to IC50 for human 22Rv1 cells.
Series [4] has as its system ACHN. The series can be described thus: Potentiation of TRAIL-induced antiproliferative activity against human ACHN cells assessed as reduction in cell numbers by measuring IC50 pretreated with compound for 2 hrs followed by TRAIL addition and measured after 24 hrs by MTT assay. It counts as functional, cell-based.
For series [5], the system named is SK-MEL-28. The experiment in a line: Antiproliferative activity against human SK-MEL-28 cells assessed as inhibition of cell proliferation incubated for 72 hrs by MTT assay. It counts as functional, cell-based. The settings on record: SK-MEL-28, 72 h.
A further series deals with HFF. The series can be described thus: Cytotoxicity against human HFF cells assessed as reduction in cell viability incubated for 72 hrs by MTT assay. It counts as cell-based.
Series [6] deals with M14. The series can be described thus: Potentiation of poly I:C-induced antiproliferative activity against human M14 cells assessed as reduction in cell numbers by measuring IC50 pretreated with compound for 2 hrs followed by poly I:C addition and measured after 48 hrs by MTT assay. The series is classed as functional, cell-based.
Series [7] deals with M14. The experiment in a line: Antiproliferative activity against human M14 cells assessed as inhibition of cell proliferation incubated for 48 hrs by MTT assay. The series is classed as functional, cell-based. The settings on record: M14, 48 h.
A short description of series [8]: Selectivity ratio of IC50 for HFF cells to IC50 for human LNCaP cells. The series is classed as toxicity. The settings on record: HFF cells versus LNCaP cells, read-out: Ratio IC50.
Series [9] deals with M14. The series can be described thus: Antiproliferative activity against human M14 cells assessed as inhibition of cell proliferation incubated for 72 hrs by MTT assay. It counts as functional, cell-based. The settings on record: M14, 72 h.
The subject of series [10] is SK-MEL-28. The series can be described thus: Antiproliferative activity against human SK-MEL-28 cells assessed as inhibition of cell proliferation incubated for 48 hrs by MTT assay. The series is classed as functional, cell-based. The following applies: SK-MEL-28, 48 h.
For series [11], the system named is ACHN. The experiment in a line: Antiproliferative activity against human ACHN cells assessed as inhibition of cell proliferation incubated for 72 hrs by MTT assay. The series is classed as functional, cell-based.
A further series concerns CWR22R. The experiment in a line: Antiproliferative activity against human 22Rv1 cells assessed as inhibition of cell proliferation incubated for 72 hrs by MTT assay. The series is classed as functional, cell-based. The following applies: 22Rv1, 72 h.
Another series deals with LNCaP. The experiment in a line: Antiproliferative activity against human LNCaP cells assessed as inhibition of cell proliferation incubated for 72 hrs by MTT assay. The series is classed as functional, cell-based.

For the compound `CC(=O)OC[C@]12CC[C@H]3[C@@H](C[C@H]4O[C@]45CC=CC(=O)[C@]35C)[C@]1(O)CC[C@@]2(O)[C@@](C)(O)C1CC(C)=C(C)C(=O)O1` (some centres not stated), the IC50 is 110 nM in the series with SK-MEL-28 [1]; more than 5 µM in the series on ACHN [2]; 160 nM with ACHN [4]; more than 5000 nM with SK-MEL-28 [5]; 2290 nM in the series on HFF; 110 nM in the series with M14 [6]. For the same compound, the IC50 with M14 [7] is more than 5 µM; with M14 [9] it was 1.57 µM; in the series with SK-MEL-28 [10] it was more than 5 µM. Besides, the “Ratio IC50” value in [3] was 75. For the same compound, the selectivity ratio in [8] was 115.
As for `CC(=O)OC[C@]12CC[C@H]3[C@@H](C[C@H]4O[C@]45[C@H](O)C=CC(=O)[C@]35C)[C@]1(O)CC[C@@]2(O)[C@@](C)(O)C1CC(C)=C(C)C(=O)O1` (some centres not stated), the IC50 with ACHN [11] is 3.93 µM; in the series on SK-MEL-28 [1], 4720 nM; in the series on ACHN [2], more than 5 µM; in the series with CWR22R, 330 nM; in the series with LNCaP it was 1740 nM; in the series with ACHN [4], 270 nM. The IC50 in the series on SK-MEL-28 [5] is 3030 nM; in the series on HFF, more than 5000 nM; in the series with M14 [6], more than 5000 nM; in the series on M14 [7] it was more than 5 µM; in the series on M14 [9], more than 5 µM; in the series on SK-MEL-28 [10], more than 5 µM.
As for `CC(=O)OC[C@]12CC[C@H]3[C@@H](C[C@H]4O[C@]45[C@@H](OC(C)=O)C=CC(=O)[C@]35C)[C@]1(O)CC[C@@]2(O)[C@@](C)(O)C1CC(C)=C(C)C(=O)O1` (some centres not stated), the IC50 in the series on ACHN [11] was 1.27 µM; in the series with SK-MEL-28 [1], 1380 nM; with ACHN [2], more than 5 µM; in the series on CWR22R it was 250 nM; in the series on LNCaP, 920 nM; in the series on ACHN [4] it was 250 nM. For the same compound, the IC50 was 1550 nM in the series on SK-MEL-28 [5]; 1520 nM in the series on HFF; 1670 nM with M14 [6]; more than 5 µM in the series on M14 [7]; more than 5 µM with M14 [9]; 2.73 µM with SK-MEL-28 [10].
`CC(=O)OC[C@]12CC[C@H]3[C@@H](C[C@H]4O[C@]45[C@H](OC(C)=O)C=CC(=O)[C@]35C)[C@]1(O)CC[C@@]2(O)[C@@](C)(O)C1CC(C)=C(C)C(=O)O1` (some centres not stated): the IC50 in the series with ACHN [11] was 3.31 µM; in the series with SK-MEL-28 [1], 2620 nM; in the series with ACHN [2], more than 5 µM; in the series with CWR22R, 210 nM; with LNCaP, 1500 nM; with ACHN [4] it was 250 nM. Also, the IC50 in the series on SK-MEL-28 [5] is 2560 nM; with HFF, more than 5000 nM; in the series on M14 [6], more than 5000 nM; in the series with M14 [7] it was more than 5 µM; with M14 [9], more than 5 µM; in the series with SK-MEL-28 [10], more than 5 µM.

These data come from ChEMBL document CHEMBL4840375, “Ring A/B-Modified 17β-Hydroxywithanolide Analogues as Antiproliferative Agents for Prostate Cancer and Potentiators of Immunotherapy for Renal Carcinoma and Melanoma” (J Nat Prod, 2021).
